Experimental data from patent US9944600B2, “Piperidine derivatives for GPR119 agonist” (CHONG KUN DANG PHARMACEUTICAL CORP., priority 2012, dated 2018).

Legend:
GPR 119 Receptor = biological target: T1, GPR 119 Receptor (Mus musculus, UniProt Q7TQP3); assay: Glucose tolerance test in normal mouse (animal test of activity for the GPR 119 receptor); format: in vivo; settings: normal male C57/6J Jms mice; for Decrease % of AUC at 10 mg/kg: oral glucose 2 g/kg, whole blood glucose AUC; for Decrease % of AUC (drop effect in blood glucose level): 10 mg/kg, oral 20% glucose 2 g/kg, whole blood glucose cAUC
T1 construct: from tissue; host or cells: whole animal: male C57/6J Jms mice (normal) or diet induced obesity C57BL/6J mice
T1 sequence (Q7TQP3 1-335): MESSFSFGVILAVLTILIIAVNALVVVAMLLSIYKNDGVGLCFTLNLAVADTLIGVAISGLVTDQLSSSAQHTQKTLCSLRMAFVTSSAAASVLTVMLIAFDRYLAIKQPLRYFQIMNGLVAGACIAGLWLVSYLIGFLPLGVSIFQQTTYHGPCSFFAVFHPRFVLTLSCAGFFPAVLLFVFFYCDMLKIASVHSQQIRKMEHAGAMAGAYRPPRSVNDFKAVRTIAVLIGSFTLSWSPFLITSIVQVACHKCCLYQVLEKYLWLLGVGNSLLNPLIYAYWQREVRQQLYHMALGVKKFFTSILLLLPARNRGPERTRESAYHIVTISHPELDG
Procedure: Male C57/6J Jms mice of 6-7 weeks of age were fasted for 16 hours before the start of glucose tolerance test. The experimental animal groups consist of: • A. a vehicle group (10% EtOH, 20% HPBCD in saline), • B. a positive control group administered with MBX-2982 (10 mg/kg), and • C. test groups administered with compound 516, 581, 586, 612, 640, 644 or etc. (10 mg/kg).
Before compound administration, that is, at 0 hour, whole blood glucose level was determined using a Glucometer (ACCU-CHEK, Roche). At 30 minutes after compound administration, whole blood glucose level was determined once again, and 20% glucose (2 g/kg/10 mL) was administered orally. Whole blood glucose level was determined at 20, 40, 60, 80, and 120 minutes after 20% glucose administration. Area under the curve (AUC) of whole blood glucose level was obtained using GraphPad Prism 5.0. The effect of glucose tolerance was adjudged with the corrected area under the curve (cAUC), on which the base value of glucose area under the curve was excluded.

human GPR119 receptor = biological target: T2, human GPR119 receptor (Homo sapiens, UniProt Q8TDV5); assay: Activity test for human GPR119 receptor (GeneBLAzer T-Rex GPR 119 CHO-K1 DA cells, fluorescence reporter); format: cell-based; settings: 5 hours treatment; for activity at 0.1 µM / activity at 1 µM / activity at 10 µM: read-out: % Activation
T2 construct: host or cells: GeneBLAzer T-Rex GPR 119 CHO-K1 DA cells (CHO-K1)
T2 sequence (Q8TDV5 1-335): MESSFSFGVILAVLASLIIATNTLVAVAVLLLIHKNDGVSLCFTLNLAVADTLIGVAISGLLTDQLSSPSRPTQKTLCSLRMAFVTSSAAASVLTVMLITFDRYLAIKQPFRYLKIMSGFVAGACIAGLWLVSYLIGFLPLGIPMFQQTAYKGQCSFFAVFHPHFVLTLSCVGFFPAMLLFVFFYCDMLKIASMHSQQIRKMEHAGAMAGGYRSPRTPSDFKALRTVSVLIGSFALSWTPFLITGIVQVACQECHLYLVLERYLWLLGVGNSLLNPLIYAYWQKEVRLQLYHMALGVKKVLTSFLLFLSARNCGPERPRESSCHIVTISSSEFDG
Procedure: As a human GPR119 receptor expression cell for this test, the cell line “GeneBLAzer™ T-Rex GPR 119 CHO-K1 DA cells” that is commercially available from Invitrogen, was used. The cell was incubated in the DMEM media containing 1% dialyzed fetal bovine serum etc. The cell incubator was kept at constant temperature and constant humidity of 37° C., 5% CO2.
The human GPR119 receptor expressing cell was used to this test. Each of test compounds was added to be final concentrations of 0.1, 1, 10 μM in 96 well and tested in duplicate. A fixed amount of cell was added to each well of 96 well separately, and then treated with the test compound for 5 hours. After treatment of color development agent for 2 hours, the fluorescence value was determined with plate reader. To the luminous wavelength of control well, which was not treated with the agonist sample, but in which only a vehicle (i.e., cell) was contained, the ratio of the luminous wavelength of test well, which was treated with the agonist sample, was calculated, and then converted to obtain % value.
All the results were expressed as mean±SD, and each test groups and the control group were compared using student's t-test to adjudge the effects of each test groups.

[1] = test compound conc. 0.1 μM, human GPR119 CHO-K1 reporter cells, ratio to vehicle control well
[2] = test compound conc. 1 μM, human GPR119 CHO-K1 reporter cells, ratio to vehicle control well
[3] = test compound conc. 10 μM, human GPR119 CHO-K1 reporter cells, ratio to vehicle control well
[4] = human GPR119 receptor expressing cell, test concentrations 0.1, 1, 10 μM (concentration not given)

| SMILES | maximum % activation (human GPR119 receptor; human GPR119 receptor expressing cell, test concentrations 0.1, 1, 10 μM, ratio to vehicle control well) [%] | % Activation (human GPR119 receptor; [1]) [%] | % Activation (human GPR119 receptor; [2]) [%] | % Activation (human GPR119 receptor; [3]) [%] | activity at 0.1 µM (human GPR119 receptor; [1]) [%] | activity at 1 µM (human GPR119 receptor; [2]) [%] | activity at 10 µM (human GPR119 receptor; [3]) [%] | % Activation (human GPR119 receptor; [4]) [%] | Decrease % of AUC at 10 mg/kg (GPR 119 Receptor) [%] | Decrease % of AUC (drop effect in blood glucose level) (GPR 119 Receptor) [%] |
| --- | --- | --- | --- | --- | --- | --- | --- | --- | --- | --- |
| CCc1cnc(N2CCC(c3nc(COc4ccc(-n5cnnn5)cc4)cs3)CC2)nc1 [MBX-2982, reference compound] | 200 | 180 | 206 | 200 | – | – | – | – | 24 | 24 |
| CC(C)(F)CN1CCC(COc2ccc(-c3ccc(C(=O)N4CCC[C@@H](O)C4)cc3)cc2)CC1 [Compound 612, (R)-(4′-((1-(2-fluoro-2-methylpropyl)piperidin-4-yl)methoxy)biphenyl-4-yl)(3-hydroxypiperidin-1-yl)methanone] | – | – | – | – | – | – | – | – | 50 | 50 |
| CN(C)C(=O)c1ccc(-c2ccc(OCC3CCN(CC(C)(C)F)CC3)cc2)cc1 [Compound 516, 4′-((1-(2-fluoro-2-methylpropyl)piperidin-4-yl)methoxy)-N,N-dimethylbiphenyl-4-carboxamide] | – | – | – | – | 185 | 243 | 289 | – | 43 | – |
| CC(C)(F)CN1CCC(COc2ccc(-c3ccc(C(=O)N4CC[C@H](O)C4)c(F)c3)cc2)CC1 [Compound 640, (S)-(3-fluoro-4′-((1-(2-fluoro-2-methylpropyl)piperidin-4-yl)methoxy)biphenyl-4-yl)(3-hydroxypyrrolidine-1-yl)methanone] | – | – | – | – | – | – | – | – | 52 | – |
| CC(C)(F)CN1CCC(COc2cnc(-c3ccc(C(=O)N4CCCC[C@@H]4C(N)=O)c(F)c3)nc2)CC1 [Compound 1037, (R)-1-(2-fluoro-4-(5-((1-(2-fluoro-2-methylpropyl)piperidin-4-yl)methoxy)pyrimidin-2-yl)benzoyl)piperidin-2-carboxamide] | – | – | – | – | 223 | 478 | 439 | – | 42 | – |
| CC(C)(F)CN1CCC(COc2ccc(-c3ccc(C(=O)N4CC[C@@H](O)C4)c(F)c3)nc2)CC1 [Compound 768, (R)-(2-fluoro-4-(5-((1-(2-fluoro-2-methylpropyl)piperidin-4-yl)methoxy)pyridine-2-yl)phenyl)(3-hydroxypyrrolidine-1-yl)methanone] | – | – | – | – | 162 | 260 | 313 | – | 40 | – |
| CC(C)(F)CN1CCC(COc2ccc(-c3ccc(C(=O)N4CCC[C@H]4C(N)=O)c(F)c3)c(C#N)c2)CC1 [Compound 1028] | – | – | – | – | 187 | 348 | 402 | 402 | – | – |

Now from value to compound, other results behind:

| maximum % activation (human GPR119 receptor; human GPR119 receptor expressing cell, test concentrations 0.1, 1, 10 μM, ratio to vehicle control well) [%] | % Activation (human GPR119 receptor; [1]) [%] | % Activation (human GPR119 receptor; [2]) [%] | % Activation (human GPR119 receptor; [3]) [%] | activity at 0.1 µM (human GPR119 receptor; [1]) [%] | activity at 1 µM (human GPR119 receptor; [2]) [%] | activity at 10 µM (human GPR119 receptor; [3]) [%] | % Activation (human GPR119 receptor; [4]) [%] | SMILES | Decrease % of AUC at 10 mg/kg (GPR 119 Receptor) [%] | Decrease % of AUC (drop effect in blood glucose level) (GPR 119 Receptor) [%] |
| --- | --- | --- | --- | --- | --- | --- | --- | --- | --- | --- |
| – | – | – | – | 289 | 248 | 311 | – | CC(C)(F)CN1CCC(COc2ccc(-c3ccc(C(=O)N4CCC[C@H]4C(N)=O)c(F)c3)cn2)CC1 [Compound 658, (S)-1-(2-fluoro-4-(6-((1-(2-fluoro-2-methylpropyl)piperidin-4-yl)methoxy)pyridine-3-yl)benzoyl)pyrrolidine-2-carboxamide] | 38 | – |
| – | – | – | – | 213 | 310 | 379 | – | NC(=O)[C@@H]1CCCN1C(=O)c1ccc(-c2ccc(OCC3CCN(CC4(C(F)(F)F)CC4)CC3)nc2)cc1 [Compound 586, (S)-1-(4-(6-((1-((1-(trifluoromethyl)cyclopropyl)methyl)piperidin-4-yl)methoxy)pyridine-3-yl)benzoyl)pyrrolidine-2-carboxamide] | 34 | – |
| – | – | – | – | 254 | 344 | 273 | – | NC(=O)[C@@H]1CCCN1C(=O)c1ccc(-c2ccc(OCC3CCN(CC4(C(F)(F)F)CCC4)CC3)nc2)cc1 [Compound 581, (S)-1-(4-(6-((1-((1-(trifluoromethyl)cyclobutyl)methyl)piperidin-4-yl)methoxy)pyridine-3-yl)benzoyl)pyrrolidine-2-carboxamide] | 50 | – |
| – | – | – | – | 191 | 232 | 307 | – | CC(C)(F)CN1CCC(COc2cnc(-c3ccc(C(=O)N4CCC[C@H]4C(N)=O)cc3)cn2)CC1 [Compound 950, (S)-1-(4-(5-((1-(2-fluoro-2-methylpropyl)piperidin-4-yl)methoxy)pyrazine-2-yl)benzoyl)pyrrolidine-2-carboxamide] | 39 | – |
| – | – | – | – | 138 | 210 | 257 | – | CC(=O)N1CCN(C(=O)c2ccc(-c3ccc(OCC4CCN(CC(C)(C)F)CC4)cc3)cc2)CC1 [Compound 628, 1-(4-(4′-((1-(2-fluoro-2-methylpropyl)piperidin-4-yl)methoxy)biphenylcarbonyl)piperazin-1-yl)ethanone] | – | – |
| – | – | – | – | 227 | 288 | 297 | – | O=C(c1ccc(-c2ccc(OCC3CCN(CC4(C(F)(F)F)CC4)CC3)nc2)cc1)N1CCC(CO)CC1 [Compound 587, (4-(hydroxymethyl)piperidin-1-yl)(4-(6-((1-((1-(trifluoromethyl)cyclopropyl)methyl)piperidin-4-yl)methoxy)pyridine-3-yl)phenyl)methanone] | – | – |
| – | – | – | – | 410 | 490 | 426 | 490 | O=C(c1ccc(-c2cnc(OCC3CCN(CC4(C(F)(F)F)CCC4)CC3)cn2)cc1F)N1CCC[C@@H](O)C1 [Compound 1013, (R)-(2-fluoro-4-(5-((1-((1-(trifluoromethyl)cyclobutyl)methyl)piperidin-4-yl)methoxy)pyrazine-2-yl)phenyl)(3-hydroxypiperidin-1-yl)methanone] | – | – |
| – | – | – | – | 214 | 298 | 310 | – | CS(=O)(=O)c1ccc(-c2ccc(OCC3CCN(CC4(C(F)(F)F)CC4)CC3)cc2)cc1 [Compound 500, 4-((4′-(methylsulfonyl)biphenyl-4-yloxy)methyl)-1-((1-(trifluoromethyl)cyclopropyl)methyl)piperidine] | – | – |
| – | – | – | – | 256 | 296 | 252 | – | O=C(c1ccc(-c2ccc(OCC3CCN(CC4(C(F)(F)F)CCC4)CC3)cc2)cc1)N1CCC[C@@H](O)C1 [Compound 794, (R)-(3-hydroxypiperidin-1-yl)(4′-((1-((1-(trifluoromethyl)cyclobutyl)methyl)piperidin-4-yl)methoxy)biphenyl-4-yl)methanone] | – | – |
| – | – | – | – | 192 | 244 | 291 | – | CC(C)(F)CN1CCC(COc2ccc(-c3ccc(C(=O)N4CCOCC4)cc3)cc2)CC1 [Compound 517, (4′-((1-(2-fluoro-2-methylpropyl)piperidin-4-yl)methoxy)biphenyl-4-yl)(morpholino)methanone] | – | – |
